Like-named read-outs stand apart in the source and are kept apart here.
Legend:
CD95L [1] = experiment: Activation-induced CD95L expression, semi-quantitative RT-PCR and quantitative PCR, Jurkat cells; type: cell-based, human; conditions: for reduction of CD95L induction, quantitative PCR: plate-bound anti-CD3 (TCR triggering)
Jurkat J16-145 cells [2] = experiment: Activation-induced (PMA or anti-CD3) ROS generation, DCFDA oxidation by FACS; type: cell-based, human
CD95L [3] = experiment: Anti-CD3 induced CD95L expression in primary human T cells (PCR); type: cell-based; conditions: day 6 T cells
[4] = system: primary human T cells (day 6 T cells); experiment: Anti-CD3 induced ROS generation (DCFDA) in primary human T cells; type: cell-based; conditions: preactivated primary human T cells (day 6); anti-CD3 30 min
CD95 receptor [5] = experiment: Apoptosis induced via direct stimulation of the CD95 receptor, Jurkat cells; type: cell-based, human; conditions: data not shown
[6] = system: primary human T cells (day 6 T cells); experiment: AICD in primary human T cells, specific cell death; type: cell-based; conditions: plate-bound anti-CD3 24 h
Experimental: FIG. 9. Primary human T cells depend on complex I-originated activation-induced ROS for CD95L expression and AICD. […] Cells were stained with DCFDA and MFI was measured by FACS. […] Next, RNA was isolated, reverse-transcribed, and amplified using CD95L- and actin-specific primers. C, T cells were transfected with 900 nM of scrambled- (ctr) or two different NDUFAF1-siRNA oligonucleotides (#1, #2). After 48 h, RNA was isolated, reverse-transcribed, and amplified using NDUFAF1- and actin-specific primers. D, 72 h after transfection with 900 nM of scrambled- (ctr) or NDUFAF1-siRNA oligonucleotides (#1, #2) primary human T were stimulated by plate-bound anti-CD3 antibodies for 30 min and oxidative signal was determined as in (A). […] (ii) For 1 h (F), to detect changes in CD95L expression (left panel semi quantitative PCR; right panel quantitative PCR). (iii) For 24 h (G) to assessed AICD by a drop in FCS/SSC index. Insert show T cells cotreated with or without CD95L neutralizing antibody (results were recalculated to “specific cell death”). H, Schematic diagram of TCR induced oxidative signalling.
Isolation of human peripheral T cells. […]
(§1) Assessment of cell death. […] Cell death was assessed by a drop in the forward-to-side-scatter (FSC/SSC) profile in comparison to living cells and recalculated to “specific cell death” as described (25).

Jurkat J16-145 cells [7] = experiment: Activation-induced T cell death (AICD), specific cell death by FSC/SSC, Jurkat cells; type: cell-based, human; conditions: PMA/ionomycin or plate-bound anti-CD3, 24 h
Experimental: as §1

CD95 receptor [8] = experiment: Apoptosis induced by direct stimulation of the CD95 receptor, primary T cells; type: cell-based, human; conditions: data not shown
complex I [9] = conditions: isolated mitochondria; reference 6; cited from earlier work
complex I [10] = conditions: references 6, 18; cited from earlier work
IL-2, IL-4, or TNF-alpha = experiment: Cytokine expression in activated T cells (RT-PCR); type: cell-based, human
Jurkat J16-145 cells [11] = experiment: Cellular ATP determination; type: cell-based, human; conditions: high concentrations of inhibitors, 2 h
[12] = Jurkat J16-145, anti-CD3 or PMA/ionomycin, 1 h

SMILES: CN(C)CCCn1cc(C2=C(c3c[nH]c4ccccc34)C(=O)NC2=O)c2ccccc21 [BIM, bisindolylmaleimide I]
- effect on activation-induced CD95L expression (RT-PCR), in words (CD95L [1]): dose dependent inhibition of CD95L expression

SMILES: c1ccc2c(c1)[I+]c1ccccc1-2 [DPI]
- effect on PMA-induced ROS generation / oxidative signal, in words (Jurkat J16-145 cells [2]; Jurkat J16-145, PMA 30 min): only a moderate effect

SMILES: O=C(CC(=O)C(F)(F)F)c1cccs1 [TTFA, 1,1,1-thenoyl trifluoroacetone]
- effect on activation-induced (TCR- and PMA-induced) ROS generation, in words (Jurkat J16-145 cells [2]): no effect or increased the oxidative signal

SMILES: COc1cc(C(C)=O)ccc1O [apocynin]
- effect on PMA-induced ROS generation / oxidative signal, in words (Jurkat J16-145 cells [2]; Jurkat J16-145, PMA 30 min): only a moderate effect

SMILES: CN(C)C(=N)N=C(N)N [metformin]
- inhibition of induction of CD95L expression (CD95L [3]; plate-bound anti-CD3 1 h): up to 70%
- effect on activation-induced (anti-CD3) oxidative signal, in words [4]: inhibits the anti-CD3 induced oxidative signal
- reduction of CD95L expression, quantitative PCR (CD95L [1]; Jurkat J16-145, PMA/ionomycin, 1 h): 50%
- effect on activation-induced CD95L expression (RT-PCR), in words (CD95L [1]; [12]): inhibition of CD95L expression
- reduction of CD95L induction, quantitative PCR (CD95L [1]; Jurkat J16-145, 1 h): up to 80%
- apoptosis induced via direct stimulation of the CD95 receptor (CD95 receptor [5]): not affected
- effect on AICD (cell death), in words [6]: nearly completely inhibited
- effect on AICD, in words (Jurkat J16-145 cells [7]): drastically reduced AICD
- apoptosis induced by direct stimulation of the CD95 receptor (CD95 receptor [8]): not affected
- inhibition of complex I-induced ROS production (complex I [9]): efficiently inhibit
- inhibition of complex I (complex I [10]): mildly inhibits
- effect on PMA-induced ROS generation / oxidative signal, in words (Jurkat J16-145 cells [2]): diminished oxidative signal
- expression of cytokines such as IL-2, IL-4, or TNF-alpha (IL-2, IL-4, or TNF-alpha): can be reduced

SMILES: CC[C@H]1/C=C/C=C/C[C@@H](C)[C@H](O)[C@@](C)(O)C(=O)[C@@H](C)[C@H](O)[C@@H](C)C(=O)[C@@H](C)[C@H](O)[C@@H](C)/C=C/C(=O)O[C@@H]2[C@H](C)[C@H](CC1)O[C@]1(CC[C@H](C)[C@H](C[C@@H](C)O)O1)[C@H]2C [oligomycin]
- reduction of CD95L induction, quantitative PCR (CD95L [1]; Jurkat J16-145, 1 h): no effect
- effect on activation-induced (TCR- and PMA-induced) ROS generation, in words (Jurkat J16-145 cells [2]; Jurkat J16-145, anti-CD3 or PMA, 30 min): no effect or increased the oxidative signal
- ATP depletion compared to rotenone and piericidin A (Jurkat J16-145 cells [11]): more efficient ATP depletion

SMILES: C/C=C(\C)[C@H](O)[C@H](C)/C=C(C)/C=C/C/C(C)=C/Cc1nc(OC)c(OC)c(O)c1C [piericidin A]
- effect on activation-induced CD95L expression (RT-PCR), in words (CD95L [1]; [12]): abolished CD95L transcription almost completely
- effect on activation-induced (TCR- and PMA-induced) ROS generation, in words (Jurkat J16-145 cells [2]): able to inhibit

SMILES: C=C(C)[C@H]1Cc2c(ccc3c2O[C@@H]2COc4cc(OC)c(OC)cc4[C@@H]2C3=O)O1 [rotenone]
- effect on CD95L expression, in words (CD95L [3]; anti-CD3 1 h): exclusively inhibited
- effect on activation-induced (anti-CD3) oxidative signal, in words [4]: exclusively inhibited
- effect on activation-induced CD95L expression (RT-PCR), in words (CD95L [1]; [12]): abolished CD95L transcription almost completely
- reduction of CD95L induction, quantitative PCR (CD95L [1]; Jurkat J16-145, 1 h): more than 80%
- effect on activation-induced (TCR- and PMA-induced) ROS generation, in words (Jurkat J16-145 cells [2]): able to inhibit
